Data from patent EP0188887A1, “Tertiary amine compounds” (IMPERIAL CHEMICAL INDUSTRIES PLC, priority 1985, dated 1986).

Experiments:
Format in all cases: in vivo
[1] = system: ERYSIPHE GRAMINIS (BARLEY); test: Foliar fungal disease test on plants (foliar spray plus root drench), Erysiphe graminis on barley; settings: 100 ppm active ingredient sprayed on foliage, root drench approximately 40 ppm a.i./dry soil; plants inoculated 24 hours before treatment
Procedure: (§1) The compounds were tested against a variety of foliar fungal diseases of plants. The technique employed was as follows. The plants were grown in John Innes Potting Compost (No 1 or 2) in 4 cm diameter minipots. The test compounds were formulated either by bead milling with aqueous Dispersol T or as a solution in acetone or acetone/ethanol which was diluted to the required concentration immediately before use. For the foliage diseases, the formulations (100 ppm active ingredient) were sprayed on to the foliage and applied to the roots of the plants in the soil. The sprays were applied to maximum retention and the root drenches to a final concentration equivalent to approximately 40 ppm a.i./dry soil. Tween 20, to give a final concentration of 0.05%, was added when the sprays were applied to cereals. For most of the tests the compound was applied to the soil (roots) and to the foliage (by spraying) one or two days before the plant was inoculated with the disease. An exception was the test on Erysiphe graminis in which the plants were inoculated 24 hours before treatment. Foliar pathogens were applied by spray as spore suspensions onto the leaves of test plants. After inoculation, the plants were put into an appropriate environment to allow infection to proceed and then incubated until the disease was ready for assessment. The period between inoculation and assessment varied from four to fourteen days according to the disease and environment. The disease control was recorded by the following grading:- • 4 = no disease • 3 = trace - 5% of disease on untreated plants • 2 = 6-25% of disease on untreated plants • 1 = 26-59% of disease on untreated plants • 0 = 60-100% of disease on untreated plants

[2] = system: VENTURIA INAEQUALIS (APPLE); test: Foliar fungal disease test on plants (foliar spray plus root drench), Venturia inaequalis on apple; settings: 100 ppm active ingredient sprayed on foliage, root drench approximately 40 ppm a.i./dry soil; applied one or two days before inoculation
Procedure: as §1

[3] = system: PUCCINIA RECONDITA (WHEAT); test: Foliar fungal disease test on plants (foliar spray plus root drench), Puccinia recondita on wheat; settings: 100 ppm active ingredient sprayed on foliage, root drench approximately 40 ppm a.i./dry soil; applied one or two days before inoculation
Procedure: as §1

[4] = system: CERCOSPORA ARACHIDICOLA (PEANUT); test: Foliar fungal disease test on plants (foliar spray plus root drench), Cercospora arachidicola on peanut; settings: 100 ppm active ingredient sprayed on foliage, root drench approximately 40 ppm a.i./dry soil; applied one or two days before inoculation
Procedure: as §1

Compound	disease control grading, ERYSIPHE GRAMINIS (BARLEY) [1]	disease control grading, VENTURIA INAEQUALIS (APPLE) [2]	disease control grading, PUCCINIA RECONDITA (WHEAT) [3]	disease control grading, CERCOSPORA ARACHIDICOLA (PEANUT) [4]
C[C@@H]1CN(C[C@@H]2C[C@@]2(C)c2ccc(C(C)(C)C)cc2)C[C@H](C)O1 (relative stereo) [Compound 15]	4 (4 = no disease)	3 (3 = trace - 5% of disease on untreated plants)	3 (3 = trace - 5% of disease on untreated plants)	
CC(C)(C)c1ccc(C2C(CN3CCOCC3)C2(C)C)cc1 (stereo not drawn) [Compound 8, 4-[2-(p-t-butylphenyl)-3,3-dimethylcyclopropylmethyl]-morpholine]	4 (4 = no disease)	3 (3 = trace - 5% of disease on untreated plants)	0 (0 = 60-100% of disease on untreated plants)	3 (3 = trace - 5% of disease on untreated plants)
CC(C)(C)c1ccc(C2CC2CC2CCNCC2)cc1 (stereo not drawn) [Compound 1, 4-[2-(p-t-butylphenyl)-cyclopropylmethyl]-piperidine]	4 (4 = no disease)	0 (0 = 60-100% of disease on untreated plants)	4 (4 = no disease)	1 (1 = 26-59% of disease on untreated plants)
C[C@@H]1CN(C[C@@H]2C[C@H]2c2ccc(C(C)(C)C)cc2)C[C@H](C)O1 (relative stereo) [Compound 4, 4-[2-(p-t-butylphenyl)-trans-cyclopropylmethyl]-2,6-cis-dimethylmorpholine]	4 (4 = no disease)	3 (3 = trace - 5% of disease on untreated plants)	3 (3 = trace - 5% of disease on untreated plants)	0 (0 = 60-100% of disease on untreated plants)
